Source: patent US20150175655A1 (priority 2012, published 2015)

Biological target: T1, NS3 genotype 3a protease (UniProt Q81258)
T1 construct: Purified NS3 protease domain (amino acids 1-181) of the genotype 1b and 3a virus were generated as above; fused on or other part: N-terminal hexahistidine tag and rTEV protease cleavage site (vector p28-N6H-Tev-NS3(181)3)
T1 sequence (Q81258 1033-1663): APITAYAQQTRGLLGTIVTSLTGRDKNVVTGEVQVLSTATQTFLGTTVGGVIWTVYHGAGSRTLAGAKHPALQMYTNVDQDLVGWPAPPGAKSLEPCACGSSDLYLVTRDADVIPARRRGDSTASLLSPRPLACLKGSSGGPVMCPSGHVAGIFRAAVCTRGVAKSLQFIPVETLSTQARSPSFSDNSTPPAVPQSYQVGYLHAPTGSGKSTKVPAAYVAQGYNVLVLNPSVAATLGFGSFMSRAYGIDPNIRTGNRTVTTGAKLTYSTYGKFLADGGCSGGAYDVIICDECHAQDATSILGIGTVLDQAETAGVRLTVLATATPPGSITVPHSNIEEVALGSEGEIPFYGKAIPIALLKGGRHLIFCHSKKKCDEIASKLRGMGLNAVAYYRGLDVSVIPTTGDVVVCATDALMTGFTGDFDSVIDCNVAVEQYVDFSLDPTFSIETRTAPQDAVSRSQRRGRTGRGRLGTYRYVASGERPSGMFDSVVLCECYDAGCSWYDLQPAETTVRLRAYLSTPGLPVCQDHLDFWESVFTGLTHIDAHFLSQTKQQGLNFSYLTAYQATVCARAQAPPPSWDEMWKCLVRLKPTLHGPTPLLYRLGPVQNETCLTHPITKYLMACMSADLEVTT
Assay: Ki determination, NS3 protease genotype 3a (fluorogenic depsipeptide substrate)
Assay type: biochemical, hepatitis C virus
Conditions: 200 pM enzyme, 20 μM NS4A peptide, 2 μM substrate, read-out: Ki 3A
Excerpt: The coding sequences for the genotype 3 HCV protease domain was amplified by RT-PCR using a Titan One Tube RT-PCR Kit (Roche, Indianapolis, Ind.) and RNA extracted from HCV-positive human serum (BBI Diagnostics, MA) using a QIAmp UltraSens Virus Kit (Qiagen, Valencia, Calif.). 5′ PCR primers were designed to encode N-terminal hexahistidine tags and to insert in-frame rTEV protease cleavage sites into the NS3 protease coding sequences. The resulting DNA fragments were cloned into pET28 yielding the expression vectors p28-N6H-Tev-NS3(181)1a and p28-N6H-Tev-NS3(181)3, respectively.
BL21AI bacteria (Invitrogen, Carlsbad, Calif.) were transformed with genotype 1b or 3 NS3 expression vectors and used to inoculate a 20 L fermentation vessel (Sartorius BBI System Inc., Bethlehem, Pa.), containing 18 L of fresh 2YT medium supplemented with 50 μg/mL kanamycin. When cell densities reached an OD600 of 1, the temperature of the cultures was reduced from 37° C. to 28° C. and induction was immediately initiated by the addition of 30 μM ZnSO4, 14 mM L-arabinose and 1 mM Isopropyl β-D-thiogalactoside (IPTG) final concentrations. Cells were harvested by centrifugation four hours post-induction and were stored as frozen pellets at −80° C. prior to NS3 protein purification.
Bacterial pellets collected from the expression of genotype 3 HCV NS3 protease were homogenized in Lysis Buffer (25 mM tris, pH 7.5 buffer containing 150 mM NaCl and 1 mM phenylmethanesulfonyl fluoride (PMSF)) and passed through a microfluidizer at 18,000 pounds/in^2. Homogenized cell lysates were centrifuged at 30,000×g for 30 minutes at 4° C. The resulting P1 pellets were washed with Wash Buffer I (25 mM tris, pH 7.5 containing 1% CHAPS) followed by centrifugation at 10,000×g for 30 minutes at 4° C. […] The resulting P3 pellets were resuspended in Solubilization Buffer (20 ml of 25 mM tris, pH 7.5 containing 150 mM NaCl and 8 M urea) and incubated at 4° C. for one hour. Solubilized proteins were passed through a 0.45 micron filter. Protein concentrations were measured and the solutions were adjusted to 40 mM DTT, incubated for 30 minutes at 4° C. and then quickly diluted into Refolding Buffer (25 mM tris, pH 8.5, 0.8 M Guanidine-HCl, 0.4 M L-Arginine, 10 mM ZnSO4) while stirring. Protein solutions were incubated at 4° C. overnight to allow refolding. Refolded proteases were centrifuged at 30,000×g for 10 minutes to remove residual precipitates. Final protein concentrations were then measured and the NS3 proteases were aliquoted, snap frozen in liquid nitrogen and stored at −80° C.
Purified NS3 protease domain (amino acids 1-181) of the genotype 1b and 3a virus were generated as above. The internally quenched fluorogenic depsipeptide substrate Ac-DED(Edans)-EEAbuψ[COO]ASK(Dabcyl)-NH2 and a synthetic peptide containing the hydrophobic core residues of the NS4A protein cofactor ([…]; NS4A peptide) were obtained from Anaspec, Inc. (San Jose, Calif.). Other chemicals and biochemicals were of reagent grade or better and were purchased from standard suppliers.
Reactions were run at room temperature in buffer consisting of 50 mM HEPES, 40% glycerol, 0.05% Triton X-100, 10 mM DTT, and 10% DMSO. The final assay solutions contained 50 pM NS3 genotype 1b protease or 200 pM genotype 3a protease, 20 μM NS4A peptide, and 4 μM substrate (genotype 1 b) or 2 μM substrate (genotype 3a). Inhibitor concentrations varied from 100 nM to 5 pM in 3-fold dilutions, and no-inhibitor controls were included.
Compound dilutions were made in DMSO at 20× final concentration. Reaction mixtures were prepared in 96-well assay plates. A solution of enzyme and NS4A peptide in assay buffer (25 μL volume with both reagents at 4× final concentration) was mixed with 45 μL assay buffer and 5 μL of either inhibitor or DMSO, and pre-incubated at room temperature for 1 hour. The reaction was started by addition of 25 μL substrate solution at 4× final concentration. […]

Compared with COc1ccc2nc3c(nc2c1)O[C@H]1CN(C(=O)[C@H](C(C)(C)C)NC(=O)O[C@@H]2CCC[C@H]2CCCCC3)[C@H](C(=O)N[C@]2(C(=O)NS(=O)(=O)C3CC3)C[C@H]2C(F)F)[C@@H]1C [Example 28, (3aR,7S,10S,11S,12R,24aR)-7-tert-butyl-N-[(1R,2R)-1-[(cyclopropylsulfonyl)carbamoyl]-2-(difluoromethyl)cyclopropyl]-16-methoxy-11-methyl-5,8-dioxo-1,2,3,3a,5,6,7,8,11,12,20,21,22,23,24,24a-hexadecahydro-10H-9,12-methanocyclopenta[18,19][1,10,3,6]dioxadiazacyclononadecino[11,12-b]quinoxaline-10-carboxamide], CC[C@@H]1[C@@H]2CN(C(=O)[C@H](C(C)(C)C)NC(=O)O[C@@H]3[C@H]4CC[C@H](C4)[C@H]3CCCCCc3nc4ccc(OC)cc4nc3O2)[C@@H]1C(=O)N[C@]1(C(=O)NS(=O)(=O)C2(C)CC2)C[C@H]1C(F)F [Example 37, (1R,4S,4aR,8S,11S,12S,13R,25aR)-8-tert-butyl-N-[(1R,2R)-2-(difluoromethyl)-1-{[(1-methylcyclopropyl)sulfonyl]carbamoyl}cyclopropyl]-12-ethyl-17-methoxy-6,9-dioxo-2,3,4,4a,6,7,8,9,12,13,21,22,23,24,25,25a-hexadecahydro-1H,11H-1,4:10,13-dimethanoquinoxalino[2,3-k][1,10,3,6]benzodioxadiazacyclononadecine-11-carboxamide] is 2.4-fold higher in Ki: 0.08 nM for the first, 0.19 nM for the second. The first binds more tightly here.

CC[C@@H]1[C@@H]2CN(C(=O)[C@H](C(C)(C)C)NC(=O)O[C@@H]3C[C@H]3CCCCC(F)(F)c3nc4ccc(OC)cc4nc3O2)[C@@H]1C(=O)N[C@]1(C(=O)NS(=O)(=O)C2CC2)C[C@H]1CC [Example 34, (1aR,5S,8S,9S,10R,22aR)-5-tert-butyl-N-{(1R,2R)-1-[(cyclopropylsulfonyl)carbamoyl]-2-ethylcyclopropyl}-9-ethyl-18,18-difluoro-14-methoxy-3,6-dioxo-1,1a,3,4,5,6,9,10,18,19,20,21,22,22a-tetradecahydro-8H-7,10-methanocyclopropa[18,19][1,10,3,6]dioxadiazacyclononadecino[11,12-b]quinoxaline-8-carboxamide] and CC[C@@H]1[C@@H]2CN(C(=O)[C@H](C(C)(C)C)NC(=O)O[C@@H]3C[C@H]3CCCCC(F)(F)c3nc4ccc(OC)cc4nc3O2)[C@@H]1C(=O)N[C@]1(C(=O)NS(=O)(=O)C2(C)CC2)C[C@H]1CC(F)F [Example 35, (1aR,5S,8S,9S,10R,22aR)-5-tert-butyl-N-[(1R,2S)-2-(2,2-difluoroethyl)-1-{[(1-methylcyclopropyl)sulfonyl]carbamoyl}cyclopropyl]-9-ethyl-18,18-difluoro-14-methoxy-3,6-dioxo-1,1a,3,4,5,6,9,10,18,19,20,21,22,22a-tetradecahydro-8H-7,10-methanocyclopropa[18,19][1,10,3,6]dioxadiazacyclononadecino[11,12-b]quinoxaline-8-carboxamide] are within 1.5-fold of each other in Ki: 0.28 nM for the first, 0.23 nM for the second.

Same assay, conditions: read-out: Ki 3A, 200 pM enzyme, 20 μM NS4A peptide, 2 μM substrate

COc1ccc2nc3c(nc2c1)O[C@H]1CN(C(=O)[C@H](C(C)(C)C)NC(=O)O[C@@H]2C[C@H]2CCCCC3)[C@H](C(=O)N[C@]2(C(=O)NS(=O)(=O)C3CC3)C[C@H]2CCF)[C@@H]1C [Example 22, (1aR,5S,8S,9S,10R,22aR)-5-tert-butyl-N-[(R1R,2S)-1-[(cyclopropylsulfonyl)carbamoyl]-2-(2-fluoroethyl)cyclopropyl]-14-methoxy-9-methyl-3,6-dioxo-1,1a,3,4,5,6,9,10,18,19,20,21,22,22a-tetradecahydro-8H-7,10-methanocyclopropa[18,19][1,10,3,6]dioxadiazacyclononadecino[11,12-b]quinoxaline-8-carboxamide] and COc1ccc2nc3c(nc2c1)O[C@H]1CN(C(=O)[C@H](C(C)(C)C)NC(=O)O[C@@H]2C[C@H]2CCCCC3)[C@H](C(=O)N[C@]2(C(=O)NS(=O)(=O)C3CC3)C[C@H]2CC(F)F)[C@@H]1C [Example 24, (1aR,5S,8S,9S,10R,22aR)-5-tert-butyl-N-[(1R,2S)-1-[(cyclopropylsulfonyl)carbamoyl]-2-(2,2-difluoroethyl)cyclopropyl]-14-methoxy-9-methyl-3,6-dioxo-1,1a,3,4,5,6,9,10,18,19,20,21,22,22a-tetradecahydro-8H-7,10-methanocyclopropa[18,19][1,10,3,6]dioxadiazacyclononadecino[11,12-b]quinoxaline-8-carboxamide] are within 1.5-fold of each other in Ki: 1.3 nM for the first, 0.92 nM for the second.

Going from COc1ccc2nc3c(nc2c1)O[C@H]1CN(C(=O)[C@H](C(C)(C)C)NC(=O)O[C@@H]2C[C@H]2CCCCC3)[C@H](C(=O)N[C@]2(C(=O)NS(=O)(=O)C3(C)CC3)C[C@H]2CCF)[C@@H]1C [Example 23, (1aR,5S,8S,9S,10R,22aR)-5-tert-butyl-N-[(1R,2S)-2-(2-fluoroethyl)-1-{[(1-methylcyclopropyl)sulfonyl]carbamoyl}cyclopropyl]-14-methoxy-9-methyl-3,6-dioxo-1,1a,3,4,5,6,9,10,18,19,20,21,22,22a-tetradecahydro-8H-7,10-methanocyclopropa[18,19][1,10,3,6]dioxadiazacyclononadecino[11,12-b]quinoxaline-8-carboxamide] to COc1ccc2nc3c(nc2c1)O[C@H]1CN(C(=O)[C@H](C(C)(C)C)NC(=O)O[C@@H]2C[C@H]2CCCCC3)[C@H](C(=O)N[C@]2(C(=O)NS(=O)(=O)C3(C)CC3)C[C@H]2CC(F)F)[C@@H]1C [Example 25, (1aR,5S,8S,9S,10R,22aR)-5-tert-butyl-N-[(1R,2S)-2-(2,2-difluoroethyl)-1-{[(1-methylcyclopropyl)sulfonyl]carbamoyl}cyclopropyl]-14-methoxy-9-methyl-3,6-dioxo-1,1a,3,4,5,6,9,10,18,19,20,21,22,22a-tetradecahydro-8H-7,10-methanocyclopropa[18,19][1,10,3,6]dioxadiazacyclononadecino[11,12-b]quinoxaline-8-carboxamide], the Ki falls from 1.1 nM to 0.39 nM (2.8-fold).
